Assay results: US20100004159A1, “SUBSTITUTED IMIDAZOLONE DERIVATIVES, PREPARATIONS AND USES” (GENFIT, priority 2006, published 2010)

Molecule `CCCCC1=NC2(CCCCC2)C(=O)N1Cc1ccc(-c2cc(OC(C)(C)C(=O)O)ccc2Br)cc1` [Compound 22, 1-[(6′-bromo-3′-((1-carboxy-1,1-dimethylmethyl)oxy)biphenyl-4-yl)methyl]-2-butyl-4-spirocyclohexyl-1H-imidazol-5(4H)-one] has a melting point of 170 to 172 °C.
With `CCCCC1=NC2(CCCCC2)C(=O)N1Cc1ccc(-c2cccc(OC(CC)C(=O)O)c2)cc1` (stereo not shown) [Compound 54, 2-butyl-1-[(3′-((1-carboxy-1-ethylmethyl)oxy)biphenyl-4-yl)methyl]-4-spirocyclohexyl-1H-imidazol-5(4H)-one] the melting point was 170 °C.
For `CCCCC1=NC(CC)(CC)C(=O)N1Cc1ccc(-c2cccc(OC(C(=O)O)C(C)C)c2)cc1` (stereo not shown) [Compound 63, 2-butyl-1-[(3′-((1-carboxy-1-(1,1-dimethylmethyl)methyl)oxy)-biphenyl-4-yl)methyl]-4,4-diethyl-1H-imidazol-5(4H)-one], the melting point was 65 °C.
With `CCCCC1=NC(c2ccccc2)C(=O)N1Cc1ccc(C(=O)c2cccc(OC(C)(C)C(=O)O)c2)cc1` (stereo not shown) [Compound 15, 2-butyl-1-[[4-[(3-((1-carboxy-1,1-dimethylmethyl)oxy)phenyl)carbonyl]phenyl]methyl]-4-phenyl-1H-imidazol-5(4H)-one] the melting point was 115 to 120 °C.
With `CCCCC1=NC2(CCCC2)C(=O)N1Cc1ccc(-c2cc(OC(C(=O)O)C(C)C)ccc2CCC)cc1` (stereo not shown) [Compound 86, 2-butyl-1-[(3′-((1-carboxy-1-(1,1-dimethylmethyl)methyl)oxy)-6′-propyl-biphenyl-4-yl)methyl]-4-spirocyclopentyl-1H-imidazol-5(4H)-one] the melting point was 81 °C.
For `CCCCC1=NC2(CCCCC2)C(=O)N1Cc1ccc(-c2cccc(OC3(C(=O)O)CCC3)c2)cc1` [Compound 67, 2-butyl-1-[(3′-((1-carboxy-1-spirocyclobutylmethyl)oxy)biphenyl-4-yl)methyl]-4-spirocyclohexyl-1H-imidazol-5(4H)-one], the melting point was 184 °C.
In the case of `CCCCC1=NC(CC)(CC)C(=O)N1Cc1ccc(-c2cccc(OC(C)(C)C(=O)O)c2)cc1` [Compound 65, 2-butyl-1-[(3′-((1-carboxy-1,1-dimethylmethyl)oxy)biphenyl-4-yl)methyl]-4,4-diethyl-1H-imidazol-5(4H)one], the melting point is reported as 144 °C.
For `CC(C)(Oc1cccc(-c2ccc(CN3C(=O)C4(CCCC4)N=C3Cc3ccccc3)cc2)c1)C(=O)O` [Compound 28, 2-benzyl-1-[(3′-((1-carboxy-1,1-dimethylmethyl)oxy)biphenyl-4-yl)methyl]-4-spirocyclopentyl-1H-imidazol-5(4H)-one], the melting point was 149 to 153 °C.
For `CCCCC1=NC2(CCCCC2)C(=O)N1Cc1ccc(-c2cccc(OCC(=O)O)c2)cc1` [Compound 52, 2-butyl-1-[(3′-((1-carboxymethyl)oxy)biphenyl-4-yl)methyl]-4-spirocyclohexyl-1H-imidazol-5(4H)-one], the melting point was 82 to 85 °C.
`CCCCC1=NC2(CCCC2)C(=O)N1Cc1ccc(-c2cccc(OC(CC)c3nnn[nH]3)c2)cc1` (stereo not shown) [Compound 99, 2-butyl-1-[(3′-((1-(tetrazol-5-yl)-1-ethylmethyl)oxy)-biophenyl-4-yl)methyl]-4-spirocyclopentyl-1H-imidazol-5(4H)-one] gave a melting point of 76 °C.
In the case of `CCCCC1=NC2(CCCC2)C(=O)N1Cc1ccc(-c2cc(OC(C)(C)C(=O)O)ccc2C#N)cc1` [Compound 89, 2-butyl-1-[(3′-((1-carboxy-1.1-dimethylmethyl)oxy)-6′-cyano-biphenyl-4-yl)methyl]-4-spirocyclopentyl-1H-imidazol-5(4H)-one], the melting point is reported as < 50 °C.
Molecule `CCCCC1=NC2(CCCC2)C(=O)N1Cc1ccc(-c2cccc(OC(C)(C)C(=O)O)c2F)cc1` [Compound 78, 2-butyl-1-[(3′-((1-carboxy-1,1-dimethylmethyl)oxy)-2′-fluoro-biphenyl-4-yl)methyl]-4-spirocyclopentyl-1H-imidazol-5(4H)-one] has a melting point of 162 °C.
Work on `CCCCC1=NC2(CCCC2)C(=O)N1Cc1ccc(-c2ccc(CC(C)C)c(OC(C)(C)C(=O)O)c2)cc1` [Compound 81, 2-butyl-1-[(3′-((1-carboxy-1,1-dimethylmethyl)oxy)-4′-isobutyl-biphenyl-4-yl)methyl]-4-spirocyclopentyl-1H-imidazol-5(4H)-one] yielded a melting point of 78 °C.
For `CCCCC1=NC2(CCCCC2)C(=O)N1Cc1ccc(-c2cc(OCC(=O)O)ccc2F)cc1` [Compound 56, 2-butyl-1-[(3′-((1-carbonylmethyl)oxy)-6′-fluoro-biphenyl-4-yl)methyl]-4-spirocyclohexyl-1H-imidazol-5(4H)-one], the melting point was 102 to 105 °C.
In the case of `CC(C)CC1=NC2(CCCC2)C(=O)N1Cc1ccc(-c2cccc(OC(C)(C)C(=O)O)c2)cc1` [Compound 27, 1-[(3′-((1-carboxy-1,1-dimethylmethyl)oxy)biphenyl-4-yl)methyl]-2-(2-methyl)propyl-4-spirocyclopentyl-1H-imidazol-5(4H)-one], the melting point is reported as 213 to 216 °C.
Molecule `CC1=NC2(CCCC2)C(=O)N1Cc1ccc(-c2cccc(OC(C)(C)C(=O)O)c2)cc1` [Compound 18, 1-[(3′-((1-carboxy-1,1-dimethylmethyl)oxy)biphenyl-4-yl)methyl]-2-methyl-4-spirocyclopentyl-1H-imidazol-5(4H)-one] has a melting point of 81 to 88 °C.
With `CCCCC1=NC2(CCCCC2)C(=O)N1Cc1ccc(-c2cccc(OC(C)(C)C(=O)O)c2)c(C)c1` [Compound 72] the melting point was 140 °C.
With `CCCCC1=NC2(CCCC2)C(=O)N1Cc1cccc(-c2ccccc2OC(C)(C)C(=O)O)c1` [Compound 75, 2-butyl-1-[(2′-((1-carboxy-1,1-dimethylmethyl)oxy)biphenyl-3-yl)methyl]-4-spirocyclopentyl-1H-imidazol-5(4H)-one] the melting point was 167 °C.
Work on `CCCCC1=NC2(CCCCC2)C(=O)N1Cc1ccc(C(=O)c2cccc(OC(C)(C)C(=O)O)c2)cc1` [Compound 11, 2-butyl-1-[[4-[(3-((1-carboxyl-1,1-dimethylmethyl)oxy)phenyl)carbonyl]phenyl]methyl]-4-spirocyclohexyl-1H-imidazol-5(4H)-one] yielded a melting point of 68 to 75 °C.
`CCCCC1=NC(CC)(CC)C(=O)N1Cc1ccc(-c2cccc(OC(CC)C(=O)O)c2)cc1` (stereo not shown) [Compound 64, 2-butyl-1-[(3′-((1-carboxy-1-ethylmethyl)oxy)biphenyl-4-yl)methyl]-4,4-diethyl-1H-imidazol-5(4H)one] gave a melting point of 184 °C.
With `CCCCC1=NC2(CCCC2)C(=O)N1Cc1ccc(-c2cccc(OC(C)(C)C(=O)O)c2)c(OC)c1` [Compound 90] the melting point was 157 °C.
With `CCCCC1=NC2(CCCC2)C(=O)N1Cc1cccc(-c2cccc(OC(C)(C)C(=O)O)c2)c1` [Compound 74, 2-butyl-1-[(3′-((1-carboxy-1,1-dimethylmethyl)oxy)biphenyl-3-yl)methyl]-4-spirocyclopentyl-1H-imidazol-5(4H)-one] the melting point was 70 °C.
`CCCCC1=NC(C)(C)C(=O)N1Cc1ccc(C(=O)c2cccc(OC(C)(C)C(=O)O)c2)cc1` [Compound 14, 2-butyl-1-[[4-[(3-((1-carboxyl-1,1-dimethylmethyl)oxy)phenyl)carbonyl]phenyl]methyl]-4,4-dimethyl-1H-imidazol-5(4H)-one] showed a melting point of 167 to 169 °C.
Molecule `CCCCC1=NC2(CCCCC2)C(=O)N1Cc1ccc(-c2cc(OC(C(=O)O)C(C)C)ccc2F)cc1` (stereo not shown) [Compound 59, 2-butyl-1-[(3′-((1-carboxy-1-(1,1-dimethylmethyl)-methyl)oxy)-6′-fluoro-biphenyl-4-yl)methyl]-4-spirocyclohexyl-1H-imidazol-5(4H)-one] has a melting point of 95 °C.
In the case of `CCCCC1=NC(c2ccccc2)C(=O)N1Cc1ccc(C(=O)c2ccc(OC(C)(C)C(=O)O)cc2)cc1` (stereo not shown) [Compound 20, 2-butyl-1-[[4-[(4-((1-carboxy-1,1-dimethylmethyl)oxy)phenyl)carbonyl]phenyl]methyl]-4-phenyl-1H-imidazol-5(4H)-one], the melting point is reported as 215 to 217 °C.
`CCCCC1=NC2(CCCC2)C(=O)N1Cc1ccc(-c2cc(OC(CC)C(=O)O)ccc2CCC)cc1` (stereo not shown) [Compound 85, 2-butyl-1-[(3′-((1-carboxy-1-ethylmethyl)oxy)-6′-propyl-biphenyl-4-yl)methyl]-4-spirocyclopentyl-1H-imidazol-5(4H)-one] showed a melting point of 74 °C.
`CCCCC1=NC2(CCCC2)C(=O)N1Cc1ccc(-c2cc(OC(C)C(=O)O)ccc2CCC)cc1` (stereo not shown) [Compound 83, 2-butyl-1-[(3′-((1-carboxy-1-methylmethyl)oxy)-6′-propyl-biphenyl-4-yl)methyl]-4-spirocyclopentyl-1H-imidazol-5(4H)-one] gave a melting point of 76 °C.
Molecule `CCCCC1=NC2(CCCC2)C(=O)N1Cc1ccc(-c2ccccc2OC(C)(C)C(=O)O)cc1` [Compound 6, 2-butyl-1-[(2′-((1-carboxy-1,1-dimethylmethyl)oxy)biphenyl-4-yl)methyl]-4-spirocyclopentyl-1H-imidazol-5(4H)-one] has a melting point of 74 to 80 °C.
